Laboratory results taken from patent publication US20220106282A1, “TREATMENT FOR BREAST CANCER, INCLUDING TRIPLE-NEGATIVE BREAST CANCER” (priority 2018, published 2022).
Where “and” joins values, the source holds several entries; their conditions need not be identical. Equal entries are not always repeated. Entries after “also recorded” stand apart in the source; their conditions may differ.

Assays:
[1] = test system: FVB mice transgenic for HER-2/neu; assay: Acute oral toxicity, OECD 423 test; assay type: in vivo
Experimental: 12 female mice were used in the experiment.
The dosage form for administration was prepared ex tempore.
No deaths were detected either.
Further the observations were made once per day.
The medicament was administered in 2 steps with a break of 3 hours in a volume of 0.1 ml per 10 g of a body weight per step at the concentration of 100 mg/ml, because the suspension in oil is thicker at higher concentrations and precludes the medicament to be administered through a gavage. […] Regardless of the group the width of the palpebral fissure of the animals was almost unchanged during the entire observation period. No pathological discharges from the eyes were detected. The nose was pink, moderately moist without pathological discharges. The fur of all mice was neat and shiny without bald spots. A 3% decrease of the animals body weight was registered on Day 2 and a 4% weight decrease on Day 7 from the initial weight (Table 3).

uterine body = assay: Hormonal effect: uterine body weight in tumor-bearing mice; assay type: in vivo, mouse
Experimental: To estimate the hormonal effect of the medicament, the weight of the uterine body without uterine horns was measured (Table 9).

[2] = test system: human MCF-7 cell culture (breast adenocarcinoma); assay: Proliferation of MCF-7 cells under sulfatase inhibition; assay type: cell-based; conditions: concentration of 20 μg/ml
Experimental: (§1) The cells were seeded on Carrel vials at 50×10^4 cells per flask. To study the proliferative activity of the cells under conditions of sulfatase inhibition, 24 hours after seeding the culture medium […], and then these tumor cell lines were incubated for various periods of time (24 to 72 hrs). The inhibitor was dissolved in DMSO. […] To exclude the cytotoxic effect of DMSO, a control sample comprising DMSO without sulfatase inhibitor was prepared. To exclude nonspecific detrimental effects of the compounds, normal human skin fibroblasts were used. Then the cells were detached with the versene-trypsin solution (Biolot), plated onto Carrel vials containing a fresh complete culture medium. The cells were counted when untreated control cells reached the maximum cell density per unit of surface area of a culture flask (monolayer), and their number was set as 100%. The proliferative activity of all of the studied cell cultures exposed to sulfatase inhibitors was determined in triplicate.

[3] = test system: normal human skin fibroblasts; assay: Growth of normal human skin fibroblasts (nonspecific effects); assay type: cell-based; conditions: concentration of 20 μg/ml; cells having no estrogen receptors
Experimental: as §1, with “24” for “24 hours after seeding the culture medium”

ovariectomized rats = assay: Biochemical parameters of ovariectomized rats; assay type: in vivo, rat; conditions: ovariectomised rats
[4] = Hormonal effect: uterine body weight in tumor-bearing mice; assay type: in vivo, mouse

SMILES: C[C@H]1Oc2cc(OS(N)(=O)=O)ccc2[C@H]2CC[C@]3(C)C(=O)CCC[C@H]3[C@H]21 [compound of formula (1), 3-O-sulphamoyloxy-7β-methyl-D-homo-6-oxa-8α-estra-1,3,5(10)-trien-17a-one]
- Body weight, individual mice ([1]; 2000 mg/kg i.g. (title of Table 3), Day 1 (before administration), listed as medicament): 26.0 and 28.4 and 27.7 and 26.2 (2×) and 28.3
- Body weight, average ([1]; 2000 mg/kg i.g., Day 1 (before administration)): 27.1 g
- Body weight, individual mice ([1]; 2000 mg/kg i.g., Day 2, listed as medicament, in g (unit assumed)): 25.7 and 27.7 and 27.0 and 25.3 and 27.4 and 24.7
- Body weight, individual mice ([1]; 2000 mg/kg i.g., Day 7, listed as medicament, in g (unit assumed)): 25.0 and 25.8 and 29.6 and 24.6 and 27.6 and 25.7
- Body weight, individual mice ([1]; 2000 mg/kg i.g., Day 14, listed as medicament, in g (unit assumed)): 25.1 and 28.3 and 28.0 and 25.9 and 29.1 and 26.5
- Decrease of body weight from the initial weight ([1]; 2000 mg/kg, Day 2): 3%
- LD50 ([1]; oral (i.g.), OECD 423, listed as anti-cancer agent): > 5000 mg/kg
- Hazard category according to the OECD 423 test ([1]; oral (i.g.), listed as anti-cancer agent): 5th
- Hazard category according to the OECD 423 test ([1]; oral (i.g.), listed as medicament): 5th or non-classified and 5th or unclassified
- Uterine body weight (uterine body; 20 mg/kg, all mice): 48 ± 5 mg
- Uterine body weight (uterine body; 20 mg/kg, estrous phase D): 49 ± 16 mg
- Uterine body weight (uterine body; 20 mg/kg, estrous phase E): 47 ± 7 mg
- Uterine body weight (uterine body; 100 mg/kg, all mice): 50 ± 6 mg
- Uterine body weight (uterine body; 100 mg/kg, estrous phase D): 26 ± 12 mg
- Uterine body weight (uterine body; 100 mg/kg, estrous phase E): 56 ± 5 mg
- Hormonal (uterotropic) effect on the uterus (uterine body; uterine body weight versus control group, listed as medicament): no uterotropic activity; also recorded: did not differ from that of the control group
- Proliferation of MCF-7 tumor cells [2]: completely blocks the proliferation
- Growth of human skin fibroblasts [3]: does not influence the growth
- Uterotropic activity (ovariectomized rats): no uterotropic activity
- Uterus weight (ovariectomized rats; medicament 5 mg/kg bw): 33 ± 3 mg/100 g bw
- Body weight ([4]; 20 mg/kg, all mice): 30.2 ± 1.2 g
- Body weight ([4]; 20 mg/kg, estrous phase D): 30.3 ± 1.8 g
- Body weight ([4]; 20 mg/kg, estrous phase E): 30.1 ± 1.7 g
- Body weight ([4]; 100 mg/kg, all mice): 30.3 ± 0.8 g
- Body weight ([4]; 100 mg/kg, estrous phase D): 33.1 ± 4.5 g
- Body weight ([4]; 100 mg/kg, estrous phase E): 29.6 ± 0.5 g
